Data as given in PMC6359675, “Functionalization of the Chalcone Scaffold for the Discovery of Novel Lead Compounds Targeting Fungal Infections” (Molecules, 2019).
Where two headings read alike, the source gives them in different places.

What was measured:
C. albicans ATCC 10231 = assay: In vitro susceptibility testing, microdilution broth (EUCAST), C. albicans control strain; format: cell-based, Candida albicans; details: for inhibition at 100 µM: ATCC10231, 24 h; for antifungal activity against C. albicans growth, in words: screen at 100 μM; for IC50: mean and 95% confidence interval
Protocol: The in vitro antifungal activity of the chalcones was evaluated by a microdilution broth method in accordance with the guidelines provided by the EUCAST Edef 7.3 [22]. Briefly, all strains were cultured on Sabauraud dextrose, then inocula, prepared at 0.5 McFarland, were diluted 1:20 in RPMI-1640 medium (Gibco®, ThermoFisher Scientific Inc., Waltham, MA, USA), containing glucose 2%, 0.3% levo-glutamine buffered to pH 7.0 with 0.165 M 3-(N-morpholino)propanesulfonic acid (MOPS) to yield 1-5 × 10^5 cells/mL. A total of 100 µL of the yeast suspension was inoculated in a 96-well microplate and incubated with 100 µL of serially 2-fold dilution of the compound in the range 200–6.25 µM. The following controls were included: yeast suspensions incubated in RPMI-1640 culture medium (positive growth control), or supplemented with dilutions of DMSO, or fluconazole (Sigma-Aldrich, St. Louis, MO, USA) as a commercial drug. To check the background turbidity of reagents and the sterility of the procedure, dilutions of each compound were incubated in RPMI-1640 culture medium, without yeast inoculum. The inoculated plate was incubated at 37 °C for 24 h, and subsequently the optical density at 630 nm was measured by the Multiskan Ascent microplate reader (Thermo Fisher Scientific Inc.). The effectiveness of the compounds was expressed as percent inhibition relative to the positive growth control when the inhibition […] the 50% at 100 µM. The IC50 value was determined by interpolation of the dose–response curves generated by plotting the percentages of growth inhibition, relative to the drug-free control (set to 100% of growth), as a function of the tested concentrations (on a logarithm scale). Statistical analysis was carried out by the nonlinear regression method using GraphPad Prism version 5.0 for Windows (GraphPad Software, San Diego, CA, USA). All assays were performed in triplicate and at least two independent experiments were carried out.

[1] = Cytotoxicity test on Vero cells (WST8/CCK-8 cell viability); format: cell-based, African green monkey; details: African green monkey, Vero cells (ATCC CCL-81), Vero cells, mean and 95% confidence interval
Protocol: African green monkey kidney cells (Vero ATCC CCL-81) were cultured in Eagle’s Minimal Essential Medium (MEM) (Sigma-Aldrich), supplemented with 10% fetal bovine serum (FBS) (Carlo Erba Reagents, Milan, Italy), 100 U/mL penicillin, and 100 µg/mL streptomycin at 37 °C with 5% CO2. For experiments, cells were seeded into 96-well plates at 10^4 cells/well, and incubated at 37 °C for 24 h. Following washes with PBS, cell monolayer was incubated with 100 µL of serially 2-fold dilution of the compound in the range 200–6.25 µM. Both untreated cells and cells incubated with medium containing solvent dilutions were included in each experiment as controls.
The cell viability was assessed by a WST8-based assay according to the manufacturer’s instructions (CCK-8, Cell Counting Kit-8, Dojindo Molecular Technologies, Rockville, MD, USA). After 72 h of incubation, culture medium was removed from each well, the monolayer was washed with PBS, and 100 µL of fresh medium containing 10 µL of CCK-8 solution were added. Following a 2 h at 37 °C, the absorbance was measured at 450/630 nm; data were calculated as the percentage of the cell viability relative to the untreated controls.

[2] = Candida albicans, C. albicans ATCC 10231
[3] = Candida albicans, ATCC10231, C. albicans ATCC 10231, read-out: IC50
[4] = Candida albicans, ATCC10231, C. albicans ATCC 10231, read-out: IC50 [μg/mL]
[5] = C. albicans ATCC 10231, read-out: IC50

Row | SMILES | inhibition at 100 µM (C. albicans ATCC 10231; [2]) | antifungal activity against C. albicans growth, in words (C. albicans ATCC 10231; C. albicans ATCC 10231) | CC50 at 72 h ([1]; read-out: CC50) | CC50 at 72 h ([1]; read-out: CC50 [μg/mL]) | IC50 (C. albicans ATCC 10231; [3]) | IC50 (C. albicans ATCC 10231; [4]) | melting point | IC50 (C. albicans ATCC 10231; [5])
1 | O=C(/C=C/c1ccccc1F)c1cc(Cl)ccc1O [Compound 2, (E)-1-(5-Chloro-2-hydroxyphenyl)-3-(2-fluorophenyl)prop-2-en-1-one] | 35.8 ± 1.1% | – | – | – | – | – | – | –
2 | C#CCOc1ccc(C(=O)/C=C/c2ccc(N(C)C)cc2)c(O)c1 [Compound 17, (E)-3-(4-(dimethylamino)phenyl)-1-(2-hydroxy-4-(prop-2-yn-1-yloxy)phenyl)prop-2-en-1-one] | 11 ± 3.9% | inactive | – | – | – | – | – | –
3 | C#CCOc1ccc(C(=O)/C=C/c2ccc(N(C)C)cc2)c(OC)c1 [Compound 15, (E)-3-(4-(dimethylamino)phenyl)-1-(2-methoxy-4-(prop-2-yn-1-yloxy)phenyl)prop-2-en-1-one] | < 1% | inactive | – | – | – | – | – | –
4 | C#CCOc1ccc(C(=O)/C=C/c2cccnc2)c(OC)c1 [Compound 12] | > 99% | – | 13.6 µM | 4 µg/mL | 30.7 µM | 9 µg/mL | – | –
5 | O=C(/C=C/c1ccc(F)cc1)c1cc(F)ccc1O [Compound 8, (E)-1-(5-Fluoro-2-hydroxyphenyl)-3-(4-fluorophenyl)prop-2-en-1-one] | < 1% | – | – | – | – | – | – | –
6 | CC(C)=CCOc1ccc(C(=O)/C=C/c2cccnc2)cc1 [Compound 32, (E)-1-(4-((3-methylbut-2-en-1-yl)oxy)phenyl)-3-(pyridin-3-yl)prop-2-en-1-one] | < 1% | devoid of any effect | – | – | – | – | 87 to 88 °C | –
7 | C#CCOc1ccc(C(=O)/C=C/c2cccnc2)c(O)c1 [Compound 16] | 91.9 ± 8.2% | – | 17.8 µM | 5.2 µg/mL | 10.8 µM | 3.2 µg/mL | – | –
8 | COc1cc(OCc2cn(CCO)nn2)ccc1C(=O)/C=C/c1ccc(F)cc1 [Compound 30, (E)-3-(4-fluorophenyl)-1-(4-((1-(2-hydroxyethyl)-1H-1,2,3-triazol-4-yl)methoxy)-2-methoxyphenyl)prop-2-en-1-one] | 9.5 ± 4.8% | inactive | – | – | – | – | – | –
9 | C#CCOc1ccc(C(=O)/C=C/c2cccnc2)c(OCC#C)c1 [Compound 24] | 72 ± 9.8% | – | 13 µM | 3.8 µg/mL | 26.3 µM | 12.8 µg/mL | – | 43.8 µM
10 | CC(C)=CCOc1ccc(C(=O)/C=C/c2ccncc2)c(O)c1 [Compound 21] | 96.5 ± 1.4% | – | 14.8 µM | 4.3 µg/mL | 12.6 µM | 3.7 µg/mL | – | –
11 | C#CCOc1ccc(C(=O)/C=C/c2ccc(N(C)C)cc2)c(OCC#C)c1 [Compound 27, (E)-1-(2,4-bis(prop-2-yn-1-yloxy)phenyl)-3-(4-(dimethylamino)phenyl)prop-2-en-1-one] | < 1% | inactive | – | – | – | – | – | –
12 | C#CCOc1ccc(C(=O)/C=C/c2ccncc2)c(OC)c1 [Compound 13] | > 99% | – | 7.3 µM | 2.1 µg/mL | 8.1 µM | 2.4 µg/mL | – | –
13 | C#CCOc1ccc(C(=O)/C=C/c2ccc([N+](=O)[O-])cc2)cc1 [Compound 38, (E)-3-(4-nitrophenyl)-1-(4-(prop-2-yn-1-yloxy)phenyl)prop-2-en-1-one] | 46.3 ± 3.7% | inactive | – | – | – | – | 103 to 105 °C | –
14 | C#CCOc1ccc(C(=O)/C=C/c2ccc([N+](=O)[O-])cc2)c(OCC#C)c1 [Compound 26] | 63.9 ± 3.4% | – | 5.1 µM | 1.5 µg/mL | 36.8 µM | 10.8 µg/mL | – | –
15 | CC(C)=CCOc1ccc(C(=O)/C=C/c2ccc(Cl)cc2Cl)c(O)c1 [Compound 19, (E)-3-(2,4-dichlorophenyl)-1-(2-hydroxy-4-((3-methylbut-2-en-1-yl)oxy)phenyl)prop-2-en-1-one] | 5.9 ± 5.7% | inactive | – | – | – | – | 191 to 193 °C | –
16 | C#CCOc1ccc(C(=O)/C=C/c2ccc(F)cc2)c(OCC#C)c1 [Compound 22] | < 1% | inactive | – | – | – | – | – | –
17 | C#CCOc1ccc(C(=O)/C=C/c2ccncc2)c(OCC#C)c1 [Compound 25] | 81.3 ± 17% | – | 9.1 µM | 2.7 µg/mL | 43.8 µM | 7.7 µg/mL | – | 26.3 µM
18 | O=C(/C=C/c1ccc(F)cc1)c1ccc(OCCO)cc1 [Compound 31, (E)-3-(4-fluorophenyl)-1-(4-(2-hydroxyethoxy)phenyl)prop-2-en-1-one] | 97.3 ± 0.5% | – | 8.3 µM | 2.4 µg/mL | 12 µM | 3.5 µg/mL | – | –
19 | C#CCOc1ccc(C(=O)/C=C/c2cccnc2)cc1 [Compound 36, (E)-1-(4-(prop-2-yn-1-yloxy)phenyl)-3-(pyridin-3-yl)prop-2-en-1-one] | < 1% | devoid of any effect | – | – | – | – | 96 to 98 °C | –
20 | CN(C)c1ccc(/C=C/C(=O)c2cc(F)ccc2O)cc1 [Compound 9, (E)-3-(4-(Dimethylamino)phenyl)-1-(5-fluoro-2-hydroxyphenyl)prop-2-en-1-one] | 38.5 ± 2.9% | – | – | – | – | – | – | –
21 | C#CCOc1ccc(C(=O)/C=C/c2ccc(N(C)C)cc2)cc1 [Compound 39, (E)-3-(4-(dimethylamino)phenyl)-1-(4-(prop-2-yn-1-yloxy)phenyl)prop-2-en-1-one] | < 1% | inactive | – | – | – | – | – | –
22 | CC(C)=CCOc1ccc(C(=O)/C=C/c2ccc([N+](=O)[O-])cc2)cc1 [Compound 34, (E)-1-(4-((3-methylbut-2-en-1-yl)oxy)phenyl)-3-(4-nitrophenyl)prop-2-en-1-one] | 37.9 ± 5.2% | inactive | – | – | – | – | 100 to 102 °C | –
23 | COc1cc(OCC=C(C)C)ccc1C(=O)/C=C/c1ccc(F)cc1 [Compound 18] | 34.1 ± 7.5% | – | – | – | – | – | – | –
24 | CN(C)c1ccc(/C=C/C(=O)c2cc(Cl)ccc2O)cc1 [Compound 6, (E)-1-(5-chloro-2-hydroxyphenyl)-3-(4-(dimethylamino)phenyl)prop-2-en-1-one] | < 1% | inactive | – | – | – | – | – | –
25 | COc1cc(O)ccc1C(=O)/C=C/c1ccc(F)cc1 [Compound 29, (E)-3-(4-Fluorophenyl)-1-(4-hydroxy-2-methoxyphenyl)prop-2-en-1-one] | 17.8 ± 4.1% | poor inhibition | – | – | – | – | – | –
26 | C#CCOc1ccc2c(c1)O/C(=C\c1cccnc1)C2=O [Compound 40, (Z)-6-(prop-2-yn-1-yloxy)-2-(pyridin-3-ylmethylene)benzofuran-3(2H)-one] | < 1% | loss in activity | – | – | – | – | – | –
27 | C#CCOc1ccc(C(=O)/C=C/c2ccc(F)cc2)c(OC)c1 [Compound 10, (E)-3-(4-fluorophenyl)-1-(2-methoxy-4-(prop-2-yn-1-yloxy)phenyl)prop-2-en-1-one] | 23.3 ± 9.6% | – | – | – | – | – | – | –
28 | CC(C)=CCOc1ccc(C(=O)/C=C/c2ccc(N(C)C)cc2)cc1 [Compound 35, (E)-3-(4-(dimethylamino)phenyl)-1-(4-((3-methylbut-2-en-1-yl)oxy)phenyl)prop-2-en-1-one] | 13.9 ± 3.6% | inactive | – | – | – | – | – | –
